Source: patent US5654451A, “Amino acids and peptides having modified C-terminals and modified N-terminals” (Magainin Pharmaceuticals Inc., priority 1995, dated 1997)
Values after ≈ are worked out from the molar mass of the structure shown.

Columns and labels:
Test in all cases: Antimicrobial assay (MIC, microtiter broth dilution)
Format in all cases: cell-based
E. coli = conditions: for MIC E. coli 25922: strain 25922 (Tables II-V)
Protocol: (§1) The procedure for the antimicrobial assay is based upon the guidelines of the National Committee for Clinical Laboratory Standards, Document M7-T2, Volume 8, No. 8, 1988.
(§2) 1-5×10^5 CFUs/ml of either S. aureus ATCC 25923, E. coli ATCC 25922, P. aeruginosa ATCC 27853, or C. albicans were added to the wells in full strength Mueller Hinton broth (BBL 11443) from a mid-log culture. The inoculum is standardized spectrophotometrically at 600 nm and is verified by colony counts. The plates are incubated for 16-20 hours at 37° C., and the minimal inhibitory concentrations (MIC) for the compounds are determined. Minimal inhibitory concentration is defined as the lowest concentration of amino acid or peptide which produces a clear well in the microtiter plate.

P. aeruginosa = conditions: for MIC P. aeruginosa 27853: strain 27853 (Tables II-V); for MIC P aeruginosa: Table I, P. aeruginosa ATCC 27853; for MIC Psuedo: Table VI
Protocol: as §1, §2

C. albicans = conditions: for MIC C. albicans 14053: strain 14053; for MIC C. albicans: Table I; for MIC Candida: Table VI
Protocol: as §1, §2

L. fermentum = conditions: strain 23271
C. difficile = conditions: for MIC C. difficile TTU614: strain TTU614
B. fragilis = conditions: strain 25285
S. aureus = conditions: for MIC S. aureus: Table I, S. aureus ATCC 25923; for MIC Staph: Table VI
Protocol: as §1, §2

E. floccosum = conditions: strain 52062
C. parapsilosis = tested on: C. parapsilosis
E. faecium = conditions: strain 26143
T. mentagrophytes = conditions: strain 18748
M. canis = conditions: strain 11621
P. mirabilis = tested on: P. mirabilis
S. marcescens = tested on: S. marcescens
C. tropicalis = tested on: C. tropicalis
C. kefyr = conditions: strain 28838
E. faecalis = tested on: E. faecalis
T. rubrum = conditions: strain 36262
S. epidermidis = tested on: S. epidermidis

N=C(N)NC(Cc1ccccc1)C(=O)Nc1ccc(C=Cc2ccc(NC(=O)C(N)Cc3ccccc3)cc2)cc1 (stereo not drawn) [Compound 24, 4-(N-α-amidino-phenylalanyl)-4'-phenylalanyl-diaminostilbene]
MIC E. coli 25922 (E. coli): 16 µg/mL (≈ 29.3 µM) | MIC P. aeruginosa 27853 (P. aeruginosa): 32,64 μg/ml | MIC C. albicans 14053 (C. albicans): 256 µg/mL (≈ 468 µM) | MIC L. fermentum 23271 (L. fermentum): 4 µg/mL (≈ 7.32 µM) | MIC C. difficile TTU614 (C. difficile): 16 µg/mL (≈ 29.3 µM) | MIC B. fragilis 25285 (B. fragilis): 8 µg/mL (≈ 14.6 µM)

N=C(N)NC(Cc1ccc(F)cc1)C(=O)NCCCCCCCCCCCCNC(=O)C(Cc1ccc(F)cc1)NC(=N)N (stereo not drawn) [Compound 11, 1,12-[bis-N-α-amidino-p-fluoro-phenylalanyl]diaminododecane]
MIC E. coli (E. coli; Table I, E. coli ATCC 25922): 4 µg/mL (≈ 6.51 µM) | MIC E. coli 25922 (E. coli): 2,16 μg/ml | MIC P aeruginosa (P. aeruginosa): 8 µg/mL (≈ 13 µM) | MIC P. aeruginosa 1133 (P. aeruginosa; strain 1133): 32 µg/mL (≈ 52.1 µM) | MIC P. aeruginosa 27853 (P. aeruginosa): 8,16 μg/ml | MIC P. aeruginosa El Salvador (P. aeruginosa; strain El Salvador): 128 µg/mL (≈ 208 µM) | MIC S. aureus (S. aureus): 2 µg/mL (≈ 3.25 µM) | MIC S. aureus 1093 (S. aureus; strain 1093): 2 µg/mL (≈ 3.25 µM) | MIC S. aureus 1096 (S. aureus; strain 1096): 2 µg/mL (≈ 3.25 µM) | MIC C. albicans (C. albicans): 16 µg/mL (≈ 26 µM) | MIC C. albicans 14053 (C. albicans): 2,64 μg/ml | MIC E. floccosum 52062 (E. floccosum): 4 µg/mL (≈ 6.51 µM) | MIC C. parapsilosis 10232 (C. parapsilosis; strain 10232): 1,2 μg/ml | MIC C. parapsilosis 22109 (C. parapsilosis; strain 22109): 1 µg/mL (≈ 1.63 µM) | MIC E. faecium 26143 (E. faecium): 1 µg/mL (≈ 1.63 µM) | MIC T. mentagrophytes 18748 (T. mentagrophytes): 4 µg/mL (≈ 6.51 µM) | MIC L. fermentum 23271 (L. fermentum): 1 µg/mL (≈ 1.63 µM) | MIC M. canis 11621 (M. canis): 4 µg/mL (≈ 6.51 µM) | MIC P. mirabilis 23147 (P. mirabilis; strain 23147): > 256 µg/mL | MIC P. mirabilis 24231 (P. mirabilis; strain 24231): 7256 µg/mL (≈ 11800 µM) | MIC S. marcescens 18963 (S. marcescens; strain 18963): 16 µg/mL (≈ 26 µM) | MIC S. marcescens 23420 (S. marcescens; strain 23420): > 256 µg/mL | MIC C. tropicalis 13803 (C. tropicalis; strain 13803): 2 µg/mL (≈ 3.25 µM) | MIC C. tropicalis 28707 (C. tropicalis; strain 28707): 0.5 µg/mL (≈ 0.813 µM) | MIC C. difficile P324 (C. difficile; strain P324): 2 µg/mL (≈ 3.25 µM) | MIC C. difficile TTU614 (C. difficile): 4 µg/mL (≈ 6.51 µM) | MIC B. fragilis 25285 (B. fragilis): 2 µg/mL (≈ 3.25 µM) | MIC C. kefyr 28838 (C. kefyr): 1 µg/mL (≈ 1.63 µM) | MIC E. faecalis 23296 (E. faecalis; strain 23296): 1 µg/mL (≈ 1.63 µM) | MIC E. faecalis 29212 (E. faecalis; strain 29212): 1 µg/mL (≈ 1.63 µM) | MIC T. rubrum 36262 (T. rubrum): 8 µg/mL (≈ 13 µM) | MIC S. epidermidis 1050 (S. epidermidis; strain 1050): 1 µg/mL (≈ 1.63 µM) | MIC S. epidermidis 1090 (S. epidermidis; strain 1090): 2 µg/mL (≈ 3.25 µM)

CCCCCCCCN(CCCCCCCC)C(=O)C(Cc1ccc(N)cc1)NC(=N)N (stereo not drawn) [Compound 88, N^α -Amidino-p-amino-Phe-dioctylamide]
MIC E. coli (E. coli; Table VI): 4 µg/mL (≈ 8.97 µM) | MIC Psuedo (P. aeruginosa): 32 µg/mL (≈ 71.8 µM) | MIC Staph (S. aureus): 1 µg/mL (≈ 2.24 µM) | MIC Candida (C. albicans): 0.5 µg/mL (≈ 1.12 µM)

CCCCCCN(CCCCCC)C(=O)C(Cc1ccccc1)NC(=N)N (stereo not drawn) [Compound 68, N^α -Amidino-Phe-dihexylamide]
MIC E. coli (E. coli; Table VI): 16 to 32 µg/mL | MIC Psuedo (P. aeruginosa): 16 to 64 µg/mL | MIC Staph (S. aureus): 0.5 to 1.0 µg/mL | MIC Candida (C. albicans): 4 to 16 µg/mL

CCCCCCCCN(CCCCCCCC)C(=O)C(Cc1c[nH]c2ccccc12)NC(=N)N (stereo not drawn) [Compound 66, N^α -Amidino-Trp-dioctylamide]
MIC E. coli (E. coli; Table VI): 256 µg/mL (≈ 545 µM) | MIC Psuedo (P. aeruginosa): 256 µg/mL (≈ 545 µM) | MIC Staph (S. aureus): 8 µg/mL (≈ 17 µM) | MIC Candida (C. albicans): 16 µg/mL (≈ 34.1 µM)

N-α-amidino phenylalanyl tetradecylamide [Compound 33]
MIC E. coli (E. coli; Table I, E. coli ATCC 25922): 128 µg/mL | MIC P aeruginosa (P. aeruginosa): > 256 µg/mL | MIC S. aureus (S. aureus): 8 µg/mL | MIC C. albicans (C. albicans): 16 µg/mL

N=C(N)NC(CCC(=O)NC12CC3CC(CC(C3)C1)C2)C(=O)NC12CC3CC(CC(C3)C1)C2 (stereo not drawn) [Compound 86, N^α -Amidino-Glu-(α,γ) diadamantanamide]
MIC E. coli (E. coli; Table VI): 128 µg/mL (≈ 281 µM) | MIC Psuedo (P. aeruginosa): 128 µg/mL (≈ 281 µM) | MIC Staph (S. aureus): 4 µg/mL (≈ 8.78 µM) | MIC Candida (C. albicans): 32 to 64 µg/mL
